Source: ChEMBL document CHEMBL6114983 (Bioorg Med Chem, 2025)

Molecular target: Glutaminyl-peptide cyclotransferase (Homo sapiens, UniProt Q16769)
Sequence (Q16769 whole entry): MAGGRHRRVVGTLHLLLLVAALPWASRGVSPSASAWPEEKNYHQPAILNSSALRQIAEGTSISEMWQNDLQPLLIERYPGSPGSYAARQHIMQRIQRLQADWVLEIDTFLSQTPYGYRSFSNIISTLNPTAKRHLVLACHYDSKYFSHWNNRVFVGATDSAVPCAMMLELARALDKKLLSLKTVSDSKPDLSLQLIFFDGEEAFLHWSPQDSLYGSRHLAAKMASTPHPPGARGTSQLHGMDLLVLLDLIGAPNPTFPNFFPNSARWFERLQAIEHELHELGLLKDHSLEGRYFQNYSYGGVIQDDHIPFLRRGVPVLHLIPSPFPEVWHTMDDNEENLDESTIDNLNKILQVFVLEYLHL

With COc1ccc(N(C(=S)NCCCn2cncc2C)C2CCN(C)CC2)cc1OC the IC50 was 3.36 nM.
